Test results as given in PubChem BioAssay (NCI).
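Following 48 hours of exposure in 96-well plates, responses at five concentrations were used to interpolate endpoints linearly. GI50: concentration for 50% inhibition of growth. TGI: concentration producing complete growth inhibition.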

Assays:
Assay in all cases: NCI anticancer screen, dose series, 48 h
[1] = tested on: A498 renal
[2] = tested on: CCRF-CEM leukemia
[3] = tested on: DU-145 prostate
[4] = tested on: IGROV1 ovarian
[5] = tested on: M14 melanoma
[6] = tested on: NCI-H460 lung
[7] = tested on: OVCAR-8 ovarian
[8] = tested on: SK-MEL-5 melanoma
[9] = tested on: SNB-75 CNS
[10] = tested on: SR leukemia
[11] = tested on: SW-620 colon
[12] = tested on: U251 CNS
[13] = tested on: UO-31 renal
[14] = tested on: RXF 393 renal

Structure (SMILES) | TGI [1] | TGI [2] | TGI [3] | TGI [4] | TGI [5] | TGI [6] | TGI [7] | TGI [8] | TGI [9] | TGI [10] | TGI [11] | TGI [12] | TGI [13] | TGI [14] | GI50 [3] | GI50 [6] | GI50 [14] | GI50 [8] | GI50 [9] | GI50 [11]
CC(=O)O[C@@H]1CN(S(=O)(=O)c2ccc(C)cc2)C[C@@H]1C1CCCCC1 | 55.1 µM | > 100 µM | > 100 µM | 38.6 µM | 29.3 µM | > 100 µM | 69.6 µM | 45.8 µM | 44.4 µM | > 100 µM | 41.3 µM | 37.2 µM | > 100 µM |  |  |  |  |  |  | 
CC1CC(c2ccc([N+](=O)[O-])cc2)=Nc2ccccc2S1=O (stereo not drawn) | 43.2 µM | 42.2 µM |  | 31.8 µM | 35 µM | 34.3 µM | 32.9 µM | 37.1 µM | 53.2 µM | 76.6 µM | 29.3 µM | 27.7 µM | 26.3 µM | 23.6 µM |  |  |  |  |  | 
CC(CNc1nc(Nc2ccc(Cl)c(Cl)c2)nc(C(Cl)(Cl)Cl)n1)N(C)C (stereo not drawn) |  |  | 4.09 µM |  |  | 3.11 µM |  | 2.98 µM | 4.7 µM |  | 2.95 µM |  |  | 2.88 µM | 1.99 µM | 1.66 µM | 1.52 µM | 1.63 µM | 1.53 µM | 1.6 µM
